According to ChEMBL document CHEMBL1201862, “PubChem BioAssay data set” (2004):
The source made the active and inactive calls.

Columns and labels:
[1] = target: Protein Wnt-3a (Mus musculus, UniProt P27467); assay: Wnt3a-driven reporter signaling inhibition, dose response, selectivity assay for Gli-SUFU antagonist project, Wnt-LIGHT cells, luminescence (AID 651570); type: functional; conditions: read-out: IC50_Mean;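 also: Wnt-LIGHT reporter cells stimulated with conditioned medium from Wnt3a-producing cells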
[2] = target: T1, Mannose-6-phosphate isomerase (Homo sapiens, UniProt P34949); assay: PMI enzyme inhibitors, confirmation, biochemical, fluorescence intensity (AID 1535)
T1 sequence (P34949 whole entry): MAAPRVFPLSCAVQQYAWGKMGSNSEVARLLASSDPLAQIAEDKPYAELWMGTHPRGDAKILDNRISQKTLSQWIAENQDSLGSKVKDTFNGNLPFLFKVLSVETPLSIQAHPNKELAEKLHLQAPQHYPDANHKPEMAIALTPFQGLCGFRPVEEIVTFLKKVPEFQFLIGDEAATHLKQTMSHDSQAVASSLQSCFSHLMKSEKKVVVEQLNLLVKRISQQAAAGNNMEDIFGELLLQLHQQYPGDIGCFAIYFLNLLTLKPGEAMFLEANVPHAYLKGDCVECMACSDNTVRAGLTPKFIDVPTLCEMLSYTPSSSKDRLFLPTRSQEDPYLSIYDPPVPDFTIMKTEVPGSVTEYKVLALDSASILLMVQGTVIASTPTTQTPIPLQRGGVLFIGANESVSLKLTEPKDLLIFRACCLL

[3] = target: T2, Phosphomannomutase 2 (Homo sapiens, UniProt O15305); assay: Counter screen SAR assay for PMM2 inhibitors via a fluorescence intensity assay. [Related pubchem assays (depositor defined):AID1545, AID1574]
T2 sequence (O15305 whole entry): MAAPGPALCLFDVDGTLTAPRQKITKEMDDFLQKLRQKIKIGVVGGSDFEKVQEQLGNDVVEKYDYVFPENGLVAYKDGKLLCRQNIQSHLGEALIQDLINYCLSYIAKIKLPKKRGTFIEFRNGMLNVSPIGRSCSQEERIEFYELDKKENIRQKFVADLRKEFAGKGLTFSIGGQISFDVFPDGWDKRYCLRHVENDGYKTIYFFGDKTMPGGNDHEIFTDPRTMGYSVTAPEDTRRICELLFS

[4] = system: BJ; assay: cytotoxicity toward BJ-TERT-LT-ST fibroblasts, dose response, cell-based, RAS-independent, luminescence (AID 1935); type: functional; conditions: Homo sapiens;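 also: BJ fibroblasts immortalized with TERT plus LT and ST oncogenes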
[5] = system: BJ; assay: cells; type: functional, cell-based; conditions: Homo sapiens
[6] = system: BJ; assay: cytotoxicity toward BJ-TERT fibroblasts, dose response, cell-based, RAS-independent, luminescence (AID 1933); type: functional; conditions: Homo sapiens
[7] = system: BJ; assay: cytotoxicity toward Ras-transformed BJeLR fibroblasts, dose response, cell-based, alamar blue fluorescence, cherrypicked samples (AID 2631); type: functional; conditions: Homo sapiens;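 also: confirmatory dose-response assay in RAS-dependent BJ fibroblasts engineered with TERT, LT and ST, with cytotoxicity read by fluorescence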
[8] = cytotoxicity toward DRD oncogenic fibroblasts, dose response, cell-based, non-viral oncogenic, luminescence (AID 1934); type: functional; conditions: Homo sapiens
[9] = target: Cytochrome P450 2C9 (Homo sapiens, UniProt P11712)
[10] = target: T3, Cytochrome P450 3A4 (Homo sapiens, UniProt P08684);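 also: CYP3A4 tested as one member of a cytochrome P450 panel screen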
[11] = target: T4, Streptokinase A (Streptococcus pyogenes serotype M1, UniProt P10520); assay: S. pyogenes streptokinase expression inhibitors, potency, dose response, plasminogen activation absorbance, OD405 (AID 1914); type: functional, Streptococcus pyogenes M1 GAS;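 also: secreted streptokinase activity via plasminogen activation per viability signal from cell pellet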
T4 sequence (P10520 whole entry): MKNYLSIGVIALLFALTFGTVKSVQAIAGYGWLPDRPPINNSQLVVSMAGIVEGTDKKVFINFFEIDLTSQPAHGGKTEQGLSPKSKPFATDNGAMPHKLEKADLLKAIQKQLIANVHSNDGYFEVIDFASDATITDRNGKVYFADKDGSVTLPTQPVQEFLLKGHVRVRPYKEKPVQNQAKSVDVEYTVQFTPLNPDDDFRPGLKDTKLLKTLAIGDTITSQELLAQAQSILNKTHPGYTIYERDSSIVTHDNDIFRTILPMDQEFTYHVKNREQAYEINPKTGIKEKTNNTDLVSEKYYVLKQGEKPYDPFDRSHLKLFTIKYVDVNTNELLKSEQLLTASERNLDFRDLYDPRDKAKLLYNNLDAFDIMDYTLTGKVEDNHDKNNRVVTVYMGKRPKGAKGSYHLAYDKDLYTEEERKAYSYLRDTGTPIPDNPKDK

[12] = system: Streptococcus sp. 'group A'; assay: growth inhibition of control SK(-) GAS strain, dose response, counter-screen for streptokinase expression inhibitor project, luminescence, kanamycin, BacTiterGlo, confirmation (AID 1900); type: functional, organism-based
[13] = system: Streptococcus; assay: Group A Streptococcus viability loss, dose response, counter-screen for streptokinase expression inhibitor project, luminescence, BacTiterGlo (AID 1915); type: functional, organism-based;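 also: potency for reduction of bacterial viability or growth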
[14] = target: Cytochrome P450 2D6 (Homo sapiens, UniProt P10635);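 also: CYP2D6 member of a cytochrome P450 panel assay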
[15] = target: T5, Protein skinhead-1 (Caenorhabditis elegans, UniProt P34707); type: functional
T5 sequence (P34707 whole entry): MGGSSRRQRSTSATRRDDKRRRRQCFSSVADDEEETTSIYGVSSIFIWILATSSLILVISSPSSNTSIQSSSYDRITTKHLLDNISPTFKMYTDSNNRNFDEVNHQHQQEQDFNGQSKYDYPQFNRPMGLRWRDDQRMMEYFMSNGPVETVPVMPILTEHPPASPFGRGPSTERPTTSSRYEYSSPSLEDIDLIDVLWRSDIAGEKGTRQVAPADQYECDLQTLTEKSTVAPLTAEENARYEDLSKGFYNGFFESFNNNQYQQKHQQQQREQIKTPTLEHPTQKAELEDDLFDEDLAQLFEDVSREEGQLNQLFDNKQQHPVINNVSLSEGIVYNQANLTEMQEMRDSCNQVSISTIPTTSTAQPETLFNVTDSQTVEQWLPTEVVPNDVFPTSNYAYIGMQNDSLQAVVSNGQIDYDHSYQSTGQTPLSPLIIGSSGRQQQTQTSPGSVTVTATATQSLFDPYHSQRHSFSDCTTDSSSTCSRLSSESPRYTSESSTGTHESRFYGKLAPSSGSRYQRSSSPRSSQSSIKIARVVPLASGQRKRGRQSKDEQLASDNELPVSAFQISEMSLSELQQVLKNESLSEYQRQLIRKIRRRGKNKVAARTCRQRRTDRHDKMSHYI

[16] = HEp-2 cell cytotoxicity, dose response, cytotoxicity control for RSV inhibitor project, HTS (AID 2410); type: functional; conditions: human respiratory syncytial virus
[17] = target: Voltage-dependent T-type calcium channel subunit alpha-1H (Homo sapiens, UniProt O95180); type: functional;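 also: channel activity triggered by adding a high calcium stimulation buffer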
[18] = system: INS1; assay: beta cell apoptosis inhibitors, cytokine rescue, dose response, luminescence, retest (AID 449756); type: functional, cell-based; conditions: Rattus norvegicus;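 also: cell death triggered by IL-1 beta plus TNF-alpha plus IFN-gamma mixture; protective hits raise ATP signal compared with cytokine alone wells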
[19] = target: T6, Alkaline phosphatase, tissue-nonspecific isozyme (Homo sapiens, UniProt P05186); assay: human TNAP enzyme inhibitors, SAR follow-up, biochemical, luminescent, dose response (AID 1056)
T6 sequence (P05186 whole entry): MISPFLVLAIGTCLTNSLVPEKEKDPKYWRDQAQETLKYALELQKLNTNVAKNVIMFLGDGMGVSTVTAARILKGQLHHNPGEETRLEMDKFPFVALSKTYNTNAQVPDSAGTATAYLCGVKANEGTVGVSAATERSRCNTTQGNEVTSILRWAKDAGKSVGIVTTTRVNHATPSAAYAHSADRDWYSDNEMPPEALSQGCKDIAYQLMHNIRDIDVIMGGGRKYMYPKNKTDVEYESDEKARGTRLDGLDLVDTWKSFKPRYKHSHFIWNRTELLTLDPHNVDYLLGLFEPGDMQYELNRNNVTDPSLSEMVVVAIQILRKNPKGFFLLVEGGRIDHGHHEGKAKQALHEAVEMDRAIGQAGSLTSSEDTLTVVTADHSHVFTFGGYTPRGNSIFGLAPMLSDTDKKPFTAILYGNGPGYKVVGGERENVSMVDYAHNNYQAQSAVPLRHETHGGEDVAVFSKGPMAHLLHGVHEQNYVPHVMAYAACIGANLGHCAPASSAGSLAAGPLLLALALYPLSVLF

[20] = target: T3, Cytochrome P450 3A4; remark: listed apart in the source

T3 sequence (P08684 whole entry): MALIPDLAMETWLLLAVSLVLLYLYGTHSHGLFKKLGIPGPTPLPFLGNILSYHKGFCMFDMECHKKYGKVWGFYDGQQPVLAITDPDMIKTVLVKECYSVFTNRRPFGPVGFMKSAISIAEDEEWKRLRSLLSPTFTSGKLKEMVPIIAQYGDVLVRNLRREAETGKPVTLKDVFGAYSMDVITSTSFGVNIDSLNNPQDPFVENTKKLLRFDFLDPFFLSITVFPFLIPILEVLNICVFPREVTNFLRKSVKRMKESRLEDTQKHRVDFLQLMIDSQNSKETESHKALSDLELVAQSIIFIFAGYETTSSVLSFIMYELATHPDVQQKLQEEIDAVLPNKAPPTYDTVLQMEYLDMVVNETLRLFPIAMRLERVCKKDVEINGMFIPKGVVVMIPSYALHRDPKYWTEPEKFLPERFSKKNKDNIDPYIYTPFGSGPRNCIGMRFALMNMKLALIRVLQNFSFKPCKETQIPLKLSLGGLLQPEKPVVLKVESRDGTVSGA
Sequence of Cytochrome P450 2D6 (P10635 whole entry): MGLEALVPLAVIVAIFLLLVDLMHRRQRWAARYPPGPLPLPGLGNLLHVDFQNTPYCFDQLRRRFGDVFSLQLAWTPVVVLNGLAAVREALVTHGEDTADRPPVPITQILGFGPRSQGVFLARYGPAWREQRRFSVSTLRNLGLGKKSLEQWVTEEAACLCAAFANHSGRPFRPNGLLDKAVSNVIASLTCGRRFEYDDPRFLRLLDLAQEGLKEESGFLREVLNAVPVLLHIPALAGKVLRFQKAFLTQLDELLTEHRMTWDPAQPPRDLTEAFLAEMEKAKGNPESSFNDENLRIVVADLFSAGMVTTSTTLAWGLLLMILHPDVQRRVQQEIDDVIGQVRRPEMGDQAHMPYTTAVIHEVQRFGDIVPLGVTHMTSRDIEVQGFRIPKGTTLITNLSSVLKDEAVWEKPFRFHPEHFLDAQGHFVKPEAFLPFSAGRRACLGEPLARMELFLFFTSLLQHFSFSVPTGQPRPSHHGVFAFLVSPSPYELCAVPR
Sequence of Voltage-dependent T-type calcium channel subunit alpha-1H (O95180 whole entry): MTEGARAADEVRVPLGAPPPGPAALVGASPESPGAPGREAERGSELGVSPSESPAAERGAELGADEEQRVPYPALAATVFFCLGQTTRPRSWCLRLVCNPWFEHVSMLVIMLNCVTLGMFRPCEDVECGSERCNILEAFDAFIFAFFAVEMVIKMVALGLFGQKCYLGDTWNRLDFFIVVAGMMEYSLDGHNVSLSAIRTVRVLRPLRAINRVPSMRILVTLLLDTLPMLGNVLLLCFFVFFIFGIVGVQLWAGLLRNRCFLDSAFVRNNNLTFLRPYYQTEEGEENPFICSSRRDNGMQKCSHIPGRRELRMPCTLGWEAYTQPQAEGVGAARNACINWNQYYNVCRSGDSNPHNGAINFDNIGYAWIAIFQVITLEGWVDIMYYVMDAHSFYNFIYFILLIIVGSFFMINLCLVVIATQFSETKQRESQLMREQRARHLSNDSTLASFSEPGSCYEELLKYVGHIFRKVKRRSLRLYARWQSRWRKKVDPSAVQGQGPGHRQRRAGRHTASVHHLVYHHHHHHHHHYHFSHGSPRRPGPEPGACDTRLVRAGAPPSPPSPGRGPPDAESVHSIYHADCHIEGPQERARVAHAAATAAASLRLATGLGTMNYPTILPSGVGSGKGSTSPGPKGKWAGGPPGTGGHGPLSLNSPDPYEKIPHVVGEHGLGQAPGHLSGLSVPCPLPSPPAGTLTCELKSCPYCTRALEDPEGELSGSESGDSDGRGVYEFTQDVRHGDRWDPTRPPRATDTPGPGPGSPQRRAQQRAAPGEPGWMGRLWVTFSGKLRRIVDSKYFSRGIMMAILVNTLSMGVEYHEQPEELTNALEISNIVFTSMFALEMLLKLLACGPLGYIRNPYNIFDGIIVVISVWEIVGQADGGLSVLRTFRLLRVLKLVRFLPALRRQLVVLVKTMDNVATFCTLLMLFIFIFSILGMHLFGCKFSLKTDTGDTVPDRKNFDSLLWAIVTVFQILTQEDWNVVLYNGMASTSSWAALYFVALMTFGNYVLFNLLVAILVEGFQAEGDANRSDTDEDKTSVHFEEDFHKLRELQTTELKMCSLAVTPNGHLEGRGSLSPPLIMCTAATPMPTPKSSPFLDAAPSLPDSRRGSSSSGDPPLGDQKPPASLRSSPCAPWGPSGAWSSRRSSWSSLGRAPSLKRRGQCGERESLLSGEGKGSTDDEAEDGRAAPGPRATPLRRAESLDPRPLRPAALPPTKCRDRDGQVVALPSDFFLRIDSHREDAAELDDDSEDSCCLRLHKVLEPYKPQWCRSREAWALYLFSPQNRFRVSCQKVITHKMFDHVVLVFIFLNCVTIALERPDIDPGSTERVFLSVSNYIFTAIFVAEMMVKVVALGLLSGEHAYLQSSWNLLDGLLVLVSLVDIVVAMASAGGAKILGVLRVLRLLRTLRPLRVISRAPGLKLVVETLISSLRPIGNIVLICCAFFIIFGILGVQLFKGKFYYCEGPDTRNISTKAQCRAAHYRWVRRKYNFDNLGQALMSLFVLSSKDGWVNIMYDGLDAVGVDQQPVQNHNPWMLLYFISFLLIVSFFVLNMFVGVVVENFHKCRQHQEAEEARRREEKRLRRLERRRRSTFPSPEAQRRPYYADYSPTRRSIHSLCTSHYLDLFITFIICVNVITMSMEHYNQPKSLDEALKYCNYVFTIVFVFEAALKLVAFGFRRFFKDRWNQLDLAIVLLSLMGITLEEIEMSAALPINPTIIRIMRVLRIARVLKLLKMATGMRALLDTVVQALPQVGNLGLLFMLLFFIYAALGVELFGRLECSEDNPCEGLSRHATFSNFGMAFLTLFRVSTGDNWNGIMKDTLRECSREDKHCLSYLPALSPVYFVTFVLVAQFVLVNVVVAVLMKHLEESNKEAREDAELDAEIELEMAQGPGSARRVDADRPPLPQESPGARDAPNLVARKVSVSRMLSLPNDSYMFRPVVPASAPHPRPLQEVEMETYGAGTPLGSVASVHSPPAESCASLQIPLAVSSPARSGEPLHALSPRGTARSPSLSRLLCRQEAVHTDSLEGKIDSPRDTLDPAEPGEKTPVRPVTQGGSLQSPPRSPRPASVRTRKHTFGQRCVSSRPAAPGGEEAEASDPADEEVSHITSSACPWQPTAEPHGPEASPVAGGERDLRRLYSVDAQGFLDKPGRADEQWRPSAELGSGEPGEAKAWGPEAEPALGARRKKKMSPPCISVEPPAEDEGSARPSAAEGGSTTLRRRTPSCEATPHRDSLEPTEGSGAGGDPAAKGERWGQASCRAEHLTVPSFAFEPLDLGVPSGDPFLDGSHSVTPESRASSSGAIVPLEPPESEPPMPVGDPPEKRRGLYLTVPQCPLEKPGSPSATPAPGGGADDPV
Sequence of Protein Wnt-3a (P27467 whole entry): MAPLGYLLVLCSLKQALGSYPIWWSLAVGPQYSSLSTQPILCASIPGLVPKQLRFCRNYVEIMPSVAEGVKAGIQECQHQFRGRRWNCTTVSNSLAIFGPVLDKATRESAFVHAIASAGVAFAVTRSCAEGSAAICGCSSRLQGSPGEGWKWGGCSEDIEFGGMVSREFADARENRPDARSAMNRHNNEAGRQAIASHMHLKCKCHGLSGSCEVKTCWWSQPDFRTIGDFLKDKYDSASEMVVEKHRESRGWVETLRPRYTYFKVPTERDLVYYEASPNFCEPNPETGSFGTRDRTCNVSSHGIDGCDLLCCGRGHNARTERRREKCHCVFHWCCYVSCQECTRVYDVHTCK
Sequence of Cytochrome P450 2C9 (P11712 whole entry): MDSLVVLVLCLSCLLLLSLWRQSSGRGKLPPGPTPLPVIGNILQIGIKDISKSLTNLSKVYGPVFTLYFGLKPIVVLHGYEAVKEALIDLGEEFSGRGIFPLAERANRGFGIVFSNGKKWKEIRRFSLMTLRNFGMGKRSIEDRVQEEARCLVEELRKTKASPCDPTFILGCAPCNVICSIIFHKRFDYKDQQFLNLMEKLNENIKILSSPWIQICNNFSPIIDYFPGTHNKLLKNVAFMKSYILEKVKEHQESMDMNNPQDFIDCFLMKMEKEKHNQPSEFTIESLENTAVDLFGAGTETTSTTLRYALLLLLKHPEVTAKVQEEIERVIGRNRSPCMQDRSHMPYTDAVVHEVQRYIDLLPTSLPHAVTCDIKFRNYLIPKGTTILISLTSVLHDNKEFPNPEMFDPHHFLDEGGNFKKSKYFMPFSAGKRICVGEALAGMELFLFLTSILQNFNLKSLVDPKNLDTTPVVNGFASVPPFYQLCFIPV

For `CC(C)C[C@H]1CN=C(N(C)C)N1CCCCc1ccccc1`, the IC50 [1] was 11.7 µM (active).
With `COc1cc(N=c2ssnc2Cl)cc(OC)c1` the IC50 [2] was 17.2 µM (active) and the IC50 [3] was > 100 µM (inactive).
In the case of `COc1cc(OC)c(C2=NOC(C(=O)NCc3cccs3)C2)cc1Cl` (centres undefined), the EC50 [4] is reported as 32 µM (active), the EC50 [5] is reported as 63.7 µM (active) and the EC50 [6] is reported as > 150 µM (not active). The EC50 [7] was 108 µM (active) and the EC50 [8] was 17.7 µM (inconclusive).
For `CC(C)(C)c1ccc(-c2c(C#N)c(N)nc3c2CCCC3)s1`, the AC50 [9] was 7.08 µM (inconclusive) and the AC50 [10] was “inconclusive”.
For `O=C(c1cnc(-c2ccccc2)s1)c1ccc(Cl)cc1Cl`, the EC50 [11] was 33.7 µM (active), the AC50 [10] was “inconclusive” and the EC50 [12] was 16.2 µM (active). For the same compound, the EC50 [13] was > 150 µM (not active) and the AC50 [14] was 22.4 µM (inconclusive).
With `CC1Cc2ccccc2N1C(=O)CSc1nc2ccccc2o1` (centres undefined) the IC50 [15] was > 100 µM (inactive), the CC50 [16] was 26.9 µM (active) and the EC50 [17] was 9.56 µM (active). The AC50 [18] was > 260 µM (inactive).
In the case of `O=C(Cn1cnnc1)c1ccc(O)c(O)c1`, the IC50 [19] is reported as > 100 µM (inactive).
For `Cc1nnc(/N=c2\ssnc2Cl)o1`, the IC50 [2] was 1.07 µM (active) and the IC50 [3] was > 100 µM (inactive).
In the case of `CC(=O)Nc1ccc(/C=N/Nc2nc3ccccc3[nH]2)cc1`, the EC50 [4] is reported as > 150 µM (inconclusive), the EC50 [5] is reported as 5.82 µM (active) and the EC50 [6] is reported as > 150 µM (not active). The EC50 [7] was > 133 µM (inactive) and the EC50 [8] was > 150 µM (inconclusive).
In the case of `CCS(=O)(=O)N(C)[C@@H]1c2cc(C#N)ccc2OC(C)(C)[C@H]1O`, the AC50 [20] is reported as 15.8 µM (inconclusive) and the AC50 [10] is reported as 15.8 µM (inconclusive).
